Experimental data taken from ChEMBL document CHEMBL1201862, “PubChem BioAssay data set” (2004).
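Results reflect a 48-hour exposure of cells in 96-well plates to compound at five concentrations. Abbreviation: GI50, concentration required for 50% inhibition of growth.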 The source made the active and inactive calls. No stated cut-off is given here; in the data, active = GI50 up to about 1.1 µM and inactive = higher. Where a SMILES comes first, the peptide text is derived from it. The star is where a group is joined. Cbz = O=C(OCc1ccccc1)*

Assays:
Test in all cases: NCI tumour cell line growth inhibition, 48 h
OVCAR-8 = system: OVCAR-8
HT-29 = system: HT-29
CCRF-CEM = system: CCRF-CEM
TK-10 = system: TK-10
SF-268 = system: SF-268
SK-MEL-28 = system: SK-MEL-28
SK-MEL-2 = system: SK-MEL-2
786-0 = system: 786-0
LOX IMVI = system: LOX IMVI
HCT-116 = system: HCT-116
UACC-62 = system: UACC-62
A498 = system: A498
SW-620 = system: SW-620
SR = system: SR
ACHN = system: ACHN
PC-3 = system: PC-3
MDA-N = system: MDA-N
COLO 205 = system: COLO 205
CAKI-1 = system: CAKI-1
SNB-75 = system: SNB-75

Measured: GI50

O=C(O)C1Cc2c([nH]c3ccccc23)C(CCCCO)N1 (centres undefined)
inactive: OVCAR-8 > 100 µM | HT-29 > 100 µM | CCRF-CEM > 100 µM | TK-10 > 100 µM | SF-268 > 100 µM | SK-MEL-28 > 100 µM | SK-MEL-2 > 100 µM | 786-0 > 100 µM | LOX IMVI > 100 µM | HCT-116 > 100 µM | UACC-62 > 100 µM | A498 > 100 µM | SW-620 > 100 µM | SR > 100 µM | ACHN > 100 µM | PC-3 > 100 µM | MDA-N > 100 µM | COLO 205 > 100 µM | CAKI-1 > 100 µM

Oc1cccc(-c2cn3cc(C(F)(F)F)ccc3n2)c1
inactive: OVCAR-8 27.8 µM | HT-29 24.1 µM | CCRF-CEM 24.1 µM | TK-10 22.5 µM | SF-268 38.8 µM | SK-MEL-28 61.9 µM | SK-MEL-2 39.5 µM | 786-0 54.6 µM | LOX IMVI 32.6 µM | HCT-116 39.9 µM | UACC-62 30.7 µM | A498 37.5 µM | SW-620 67.8 µM | SR 31.6 µM | ACHN 39.9 µM | PC-3 32.2 µM | MDA-N 35.7 µM | COLO 205 39.2 µM | CAKI-1 47.9 µM

COc1ccc2c(c1)CCc1[nH]c3ccccc3c1CCCC2
inactive: OVCAR-8 > 10 µM | HT-29 > 10 µM | CCRF-CEM > 10 µM | TK-10 > 10 µM | SF-268 > 10 µM | SK-MEL-28 > 10 µM | 786-0 > 10 µM | SNB-75 > 10 µM | LOX IMVI > 10 µM | HCT-116 > 10 µM | UACC-62 > 10 µM | SW-620 > 10 µM | SR > 10 µM | ACHN > 10 µM | PC-3 > 10 µM | MDA-N > 10 µM | COLO 205 > 10 µM | CAKI-1 > 10 µM

COc1ccccc1CNC(=O)[C@H](Cc1ccc(O)cn1)NC(C)=O
inactive: HT-29 > 100 µM | CCRF-CEM > 100 µM | TK-10 > 100 µM | SF-268 > 100 µM | SK-MEL-28 > 100 µM | SK-MEL-2 > 100 µM | 786-0 > 100 µM | LOX IMVI > 100 µM | HCT-116 > 100 µM | UACC-62 > 100 µM | A498 > 100 µM | SW-620 > 100 µM | SR > 100 µM | ACHN > 100 µM | PC-3 > 100 µM | MDA-N > 100 µM | COLO 205 > 100 µM | CAKI-1 > 100 µM

CCCNC(=O)Cn1c(-c2ccccc2)cc2ccccc21
inactive: OVCAR-8 > 100 µM | HT-29 93.8 µM | CCRF-CEM > 100 µM | TK-10 43.1 µM | SF-268 92 µM | SK-MEL-28 92.3 µM | SK-MEL-2 69.8 µM | 786-0 54 µM | SNB-75 25.9 µM | LOX IMVI > 100 µM | HCT-116 24.2 µM | UACC-62 26.4 µM | SW-620 > 100 µM | SR > 100 µM | ACHN 71.8 µM | PC-3 41.1 µM | MDA-N 83.4 µM | COLO 205 > 100 µM | CAKI-1 52 µM

CC(=O)N1C(OCc2ccccc2)CCN1c1ccccc1 (centres undefined)
inactive: OVCAR-8 > 10 µM | HT-29 > 10 µM | CCRF-CEM > 10 µM | TK-10 > 10 µM | SF-268 > 10 µM | SK-MEL-28 > 10 µM | SK-MEL-2 > 10 µM | 786-0 > 10 µM | SNB-75 > 10 µM | LOX IMVI > 10 µM | HCT-116 > 10 µM | SW-620 > 10 µM | SR > 10 µM | ACHN > 10 µM | PC-3 > 10 µM | MDA-N > 10 µM | COLO 205 > 10 µM | CAKI-1 > 10 µM

O=CC12C3CCC1C2C(=O)C3 (centres undefined)
inactive: OVCAR-8 > 100 µM | HT-29 > 100 µM | CCRF-CEM > 100 µM | TK-10 > 100 µM | SF-268 > 100 µM | SK-MEL-28 > 100 µM | SK-MEL-2 > 100 µM | 786-0 > 100 µM | SNB-75 > 100 µM | LOX IMVI > 100 µM | HCT-116 > 100 µM | UACC-62 > 100 µM | SW-620 > 100 µM | SR > 100 µM | ACHN > 100 µM | PC-3 > 100 µM | MDA-N > 100 µM | COLO 205 > 100 µM | CAKI-1 > 100 µM

COc1ccc(N[S+]([O-])c2cccc(C)c2)cc1 (centres undefined)
inactive: OVCAR-8 52.1 µM | HT-29 92.9 µM | CCRF-CEM 48 µM | TK-10 > 100 µM | SF-268 30.5 µM | SK-MEL-28 33 µM | 786-0 > 100 µM | SNB-75 > 100 µM | LOX IMVI 17.3 µM | HCT-116 32.7 µM | SW-620 57.5 µM | SR 35.9 µM | ACHN 7.76 µM | PC-3 > 100 µM | MDA-N > 100 µM | COLO 205 59.6 µM | CAKI-1 98.6 µM

CC1C(c2ccccc2)NC(c2ccccc2)CC1(N)C#N (centres undefined)
inactive: OVCAR-8 > 100 µM | HT-29 63.1 µM | CCRF-CEM > 100 µM | TK-10 > 100 µM | SF-268 > 100 µM | SK-MEL-28 > 100 µM | 786-0 > 100 µM | SNB-75 > 100 µM | LOX IMVI > 100 µM | HCT-116 > 100 µM | UACC-62 90.6 µM | SW-620 > 100 µM | SR > 100 µM | ACHN > 100 µM | PC-3 > 100 µM | MDA-N > 100 µM | COLO 205 43.4 µM | CAKI-1 > 100 µM

O=C1Nc2ccccc2C(=O)O/C(Cc2ccccc2)=N\c2ccccc21
inactive: OVCAR-8 > 100 µM | HT-29 > 100 µM | CCRF-CEM 36.1 µM | TK-10 > 100 µM | SF-268 > 100 µM | SK-MEL-28 > 100 µM | SK-MEL-2 > 100 µM | 786-0 > 100 µM | SNB-75 25.9 µM | LOX IMVI > 100 µM | HCT-116 > 100 µM | UACC-62 > 100 µM | SW-620 > 100 µM | SR > 100 µM | ACHN > 100 µM | PC-3 > 100 µM | MDA-N > 100 µM | COLO 205 > 100 µM | CAKI-1 > 100 µM

CCOC(=O)CCC(NC(=O)C(CC(=O)OC)NC(=O)OCc1ccccc1)C(=O)NC(CC(=O)OC)C(=O)NC(CCC(=O)OCC)C(=O)NC(CC(=O)OC)C(=O)NC(CCC(=O)OCC)C(=O)NC(CC(=O)OCC)C(=O)OCC (centres undefined) (Cbz-D(OMe)E(OEt)D(OMe)E(OEt)D(OMe)E(OEt)D(OEt)-OEt; configuration not given here)
inactive: OVCAR-8 > 100 µM | HT-29 > 100 µM | CCRF-CEM > 100 µM | TK-10 > 100 µM | SK-MEL-2 > 100 µM | 786-0 > 100 µM | LOX IMVI > 100 µM | HCT-116 > 100 µM | UACC-62 > 100 µM | A498 98.9 µM | SW-620 > 100 µM | SR > 100 µM | ACHN > 100 µM | PC-3 > 100 µM | MDA-N > 100 µM
